Measured values: patent publication US6436940B1, “Indane or dihydroindole derivatives” (H. Lundbeck A/S, priority 1996, dated 2002)
Counter-ions that a name gives are not always drawn.

Key:
[1] = target: T1, dopamine D4 receptors in cloned human dopamine receptor subtype 4.2 membranes (Homo sapiens, UniProt P21917, DEL265-296); test: 3H-YM-09151-2 binding; details: 3H-YM-09151-2, cloned human D4.2 membranes
T1 construct: purchased Dupharma A/S, Denmark CRM-016
T1 sequence (P21917 with tags, fused parts or gaps DEL265-296): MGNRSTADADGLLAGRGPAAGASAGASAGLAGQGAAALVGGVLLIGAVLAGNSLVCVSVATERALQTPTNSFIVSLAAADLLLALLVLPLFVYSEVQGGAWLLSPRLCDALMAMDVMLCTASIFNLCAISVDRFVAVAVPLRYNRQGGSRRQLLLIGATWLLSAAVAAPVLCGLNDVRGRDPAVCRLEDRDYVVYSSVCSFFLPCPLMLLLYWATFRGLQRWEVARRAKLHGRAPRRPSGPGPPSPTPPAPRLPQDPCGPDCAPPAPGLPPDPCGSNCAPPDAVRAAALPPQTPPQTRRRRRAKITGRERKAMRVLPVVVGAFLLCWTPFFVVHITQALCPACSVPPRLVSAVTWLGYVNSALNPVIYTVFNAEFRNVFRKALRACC
Experimental: By this method the inhibition by drugs of the binding of the dopamine D4 antagonist ^3H-YM-09151-2 to dopamine D4 receptors in cloned human dopamine receptor subtype 4.2 membranes is determined in vitro. Accordingly, this is a test for affinity for dopamine D4 receptors. The test is performed using a preparation of cloned dopamine D4 cell membranes CRM-016®, Dupharma A/S, Denmark, in accordance with the product specifications.

Row | Compound | IC50 [1] [nM] | further results
1 | c1ccc2c(c1)CCC2CCN1CCN(c2ccc3c(c2)OCO3)CC1 (centres unmarked) (as salt: fumarate) [Compound 6a, 1-[2-[4-(3,4-Methylenedioxyphenyl)-piperazine-1-yl]ethyl]-indane] |  | melting point: 191 to 192 °C
2 | c1ccc2c(c1)CC(CN1CCN(c3ccc4c(c3)OCO4)CC1)C2 (as salt: oxalate) [Compound 6b] |  | melting point: 197 to 199 °C
3 | c1ccc2c(c1)CCC2CN1CCN(c2ccc3c(c2)OCO3)CC1 (centres unmarked) [Compound 4a] | 8.8 | 
4 | Brc1ccc2c(c1)C(CN1CCN(c3ccc4c(c3)OCO4)CC1)CC2 (centres unmarked) [Compound 4b] |  | % inhibition of binding at 50 nM ([1]; at 50 nM): 33% at 50 nM
5 | c1ccc2c(c1)CCC2CCN1CCN(c2ccc3c(c2)OCO3)CC1 (centres unmarked) [Compound 6a, 1-[2-[4-(3,4-Methylenedioxyphenyl)-piperazine-1-yl]ethyl]-indane] | 5.6 | 
6 | c1ccc2c(c1)CC(CN1CCN(c3ccc4c(c3)OCO4)CC1)C2 [Compound 6b] | 1.8 | 
7 | O=C(CCCN1CCN(c2ccc3c(c2)OCO3)CC1)C1CNc2ccccc21 (centres unmarked) [Compound 9a, 2,3-Dihydro-3-[4-[4[(3,4-methylenedioxyphenyl)piperazine-1-yl]butyl-1-oxo]]-1H-indole] | 4.3 | 
8 | CC(=O)N1CC(CCN2CCN(c3ccc4c(c3)OCO4)CC2)c2ccccc21 (centres unmarked) [Compound 9b, 1-Acetyl-2,3-dihydro-3-[2-[4-[(3,4-methylenedioxyphenyl)piperazine-1-yl]ethyl]]1H-indole] | 3.7 | 
